Measurements reported in patent US5672715A, “Herbicidal substituted 3-aryl-pyrazoles” (Monsanto Company, priority 1995, dated 1997).

Legend:
Type in all cases: in vivo
Wheat [1] = assay: post-emergence herbicide test; details: Triticum aestivum, post-emergence, 0.25 lb/A; read-out: % plant inhibition
How it was run: (§1)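 Activity is given as percent inhibition of each species following foliar application. Pots were sprayed individually in a chamber once plants reached two to three weeks.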

Cocklebur [2] = assay: post-emergence herbicide test; details: Xanthium strumarium, post-emergence, 0.25 lb/A; read-out: % plant inhibition
How it was run: as §1

Barnyardgrass [3] = assay: post-emergence herbicide test; details: Echinochloa crus-galli, post-emergence, 0.25 lb/A; read-out: % plant inhibition
How it was run: as §1

Rape [4] = assay: post-emergence herbicide test; details: post-emergence, 0.25 lb/A; read-out: % plant inhibition
How it was run: as §1

Giant Foxtail [5] = assay: post-emergence herbicide test; details: Setaria faberi, post-emergence, 0.25 lb/A; read-out: % plant inhibition
How it was run: as §1

Wild Oats [6] = assay: post-emergence herbicide test; details: Avena fatua, post-emergence, 0.25 lb/A; read-out: % plant inhibition
How it was run: as §1

Morning Glory [7] = assay: post-emergence herbicide test; details: Ipomoea, post-emergence, 0.25 lb/A; read-out: % plant inhibition
How it was run: as §1

Blackgrass [8] = assay: post-emergence herbicide test; details: Alopecurus myosuroides, post-emergence, 0.25 lb/A; read-out: % plant inhibition
How it was run: as §1

Green Foxtail [9] = assay: post-emergence herbicide test; details: Setaria viridis, post-emergence, 0.25 lb/A; read-out: % plant inhibition
How it was run: as §1

Downy Brome [10] = assay: post-emergence herbicide test; details: Bromus tectorum, post-emergence, 0.25 lb/A; read-out: % plant inhibition
How it was run: as §1

Corn [11] = assay: post-emergence herbicide test; details: Zea mays, post-emergence, 0.25 lb/A; read-out: % plant inhibition
How it was run: as §1

Birdseye Speedwell [12] = assay: post-emergence herbicide test; details: post-emergence, 0.25 lb/A; read-out: % plant inhibition
How it was run: as §1

Soybean [13] = assay: post-emergence herbicide test; details: Glycine max, post-emergence, 0.25 lb/A; read-out: % plant inhibition
How it was run: as §1

Bedstraw Catchweed [14] = assay: post-emergence herbicide test; details: Galium aparine, post-emergence, 0.25 lb/A; read-out: % plant inhibition
How it was run: as §1

Velvetleaf [15] = assay: post-emergence herbicide test; details: Abutilon theophrasti, post-emergence, 0.25 lb/A; read-out: % plant inhibition
How it was run: as §1

Common Chickweed [16] = assay: post-emergence herbicide test; details: post-emergence, 0.25 lb/A; read-out: % plant inhibition
How it was run: as §1

Seedling Johnsongrass [17] = assay: post-emergence herbicide test; details: Sorghum halepense, post-emergence, 0.25 lb/A; read-out: % plant inhibition
How it was run: as §1

Wheat [18] = assay: pre-emergence herbicide test; details: Triticum aestivum, pre-emergence, 0.25 lb/A; read-out: % plant inhibition
How it was run: (§2)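 Steps: compact topsoil in pan; place seeds; level-fill with cover soil; add a known amount of compound before or after covering; keep pans in greenhouse, bottom-watering as needed; rate % inhibition at about 14 days.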

Cocklebur [19] = assay: pre-emergence herbicide test; details: Xanthium strumarium, pre-emergence, 0.25 lb/A; read-out: % plant inhibition
How it was run: as §2

Barnyardgrass [20] = assay: pre-emergence herbicide test; details: Echinochloa crus-galli, pre-emergence, 0.25 lb/A; read-out: % plant inhibition
How it was run: as §2

Rape [21] = assay: pre-emergence herbicide test; details: pre-emergence, 0.25 lb/A; read-out: % plant inhibition
How it was run: as §2

Giant Foxtail [22] = assay: pre-emergence herbicide test; details: Setaria faberi, pre-emergence, 0.25 lb/A; read-out: % plant inhibition
How it was run: as §2

Wild Oats [23] = assay: pre-emergence herbicide test; details: Avena fatua, pre-emergence, 0.25 lb/A; read-out: % plant inhibition
How it was run: as §2

Morning Glory [24] = assay: pre-emergence herbicide test; details: Ipomoea, pre-emergence, 0.25 lb/A; read-out: % plant inhibition
How it was run: as §2

Blackgrass [25] = assay: pre-emergence herbicide test; details: Alopecurus myosuroides, pre-emergence, 0.25 lb/A; read-out: % plant inhibition
How it was run: as §2

Green Foxtail [26] = assay: pre-emergence herbicide test; details: Setaria viridis, pre-emergence; 0.25 lb/A; read-out: % plant inhibition
How it was run: as §2

Downy Brome [27] = assay: pre-emergence herbicide test; details: Bromus tectorum, pre-emergence, 0.25 lb/A; read-out: % plant inhibition
How it was run: as §2

Corn [28] = assay: pre-emergence herbicide test; details: Zea mays, pre-emergence, 0.25 lb/A; read-out: % plant inhibition
How it was run: as §2

Birdseye Speedwell [29] = assay: pre-emergence herbicide test; details: pre-emergence, 0.25 lb/A; read-out: % plant inhibition
How it was run: as §2

Soybean [30] = assay: pre-emergence herbicide test; details: Glycine max, pre-emergence, 0.25 lb/A; read-out: % plant inhibition
How it was run: as §2

Bedstraw Catchweed [31] = assay: pre-emergence herbicide test; details: Galium aparine, pre-emergence, 0.25 lb/A; read-out: % plant inhibition
How it was run: as §2

Velvetleaf [32] = assay: pre-emergence herbicide test; details: Abutilon theophrasti, pre-emergence, 0.25 lb/A; read-out: % plant inhibition
How it was run: as §2

Common Chickweed [33] = assay: pre-emergence herbicide test; details: pre-emergence, 0.25 lb/A; read-out: % plant inhibition
How it was run: as §2

Seedling Johnsongrass [34] = assay: pre-emergence herbicide test; details: Sorghum halepense, pre-emergence, 0.25 lb/A; read-out: % plant inhibition
How it was run: as §2

Row | SMILES | inhibition at 280.212 g/ha (Wheat [1]) [%] | inhibition at 280.212 g/ha (Cocklebur [2]) [%] | inhibition at 280.212 g/ha (Barnyardgrass [3]) [%] | inhibition at 280.212 g/ha (Rape [4]) [%] | inhibition at 280.212 g/ha (Giant Foxtail [5]) [%] | inhibition at 280.212 g/ha (Wild Oats [6]) [%] | inhibition at 280.212 g/ha (Morning Glory [7]) [%] | inhibition at 280.212 g/ha (Blackgrass [8]) [%] | inhibition at 280.212 g/ha (Green Foxtail [9]) [%] | inhibition at 280.212 g/ha (Downy Brome [10]) [%] | inhibition at 280.212 g/ha (Corn [11]) [%] | inhibition at 280.212 g/ha (Birdseye Speedwell [12]) [%] | inhibition at 280.212 g/ha (Soybean [13]) [%] | inhibition at 280.212 g/ha (Bedstraw Catchweed [14]) [%] | inhibition at 280.212 g/ha (Velvetleaf [15]) [%] | inhibition at 280.212 g/ha (Common Chickweed [16]) [%] | inhibition at 280.212 g/ha (Seedling Johnsongrass [17]) [%] | inhibition at 280.212 g/ha (Wheat [18]) [%] | inhibition at 280.212 g/ha (Cocklebur [19]) [%] | inhibition at 280.212 g/ha (Barnyardgrass [20]) [%] | also measured
1 | Cc1c(-c2cc(C(=O)OCc3ccccc3)c(Cl)cc2F)nn(C)c1C(F)(F)F [Compound 41] | 15 | 95 | 65 | 40 | 5 | 20 | 75 | 20 | 90 | 30 | 35 | 100 | 15 | 100 | 99 | 98 | 70 | 3 | 25 | 50 | inhibition at 280.212 g/ha (Rape [21]): 5%; inhibition at 280.212 g/ha (Giant Foxtail [22]): 40%; inhibition at 280.212 g/ha (Wild Oats [23]): 10%; inhibition at 280.212 g/ha (Morning Glory [24]): 0%; inhibition at 280.212 g/ha (Blackgrass [25]): 15%; inhibition at 280.212 g/ha (Green Foxtail [26]): 100%; inhibition at 280.212 g/ha (Downy Brome [27]): 30%; inhibition at 280.212 g/ha (Corn [28]): 0%; inhibition at 280.212 g/ha (Birdseye Speedwell [29]): 100%; inhibition at 280.212 g/ha (Soybean [30]): 0%; inhibition at 280.212 g/ha (Bedstraw Catchweed [31]): 60%; inhibition at 280.212 g/ha (Velvetleaf [32]): 90%; inhibition at 280.212 g/ha (Common Chickweed [33]): 55%; inhibition at 280.212 g/ha (Seedling Johnsongrass [34]): 50%
2 | Cc1c(-c2cc(C(=O)OC3CCOC3)c(Cl)cc2F)nn(C)c1C(F)(F)F (stereo not drawn) [Compound 25] | 16 | 90 | 85 | 40 | 75 | 35 | 90 | 40 | 65 | 50 | 20 | 95 | 60 | 65 | 100 | 90 | 85 | 0 | 35 | 95 | inhibition at 280.212 g/ha (Rape [21]): 35%; inhibition at 280.212 g/ha (Giant Foxtail [22]): 100%; inhibition at 280.212 g/ha (Wild Oats [23]): 90%; inhibition at 280.212 g/ha (Morning Glory [24]): 55%; inhibition at 280.212 g/ha (Blackgrass [25]): 98%; inhibition at 280.212 g/ha (Green Foxtail [26]): 100%; inhibition at 280.212 g/ha (Downy Brome [27]): 10%; inhibition at 280.212 g/ha (Corn [28]): 45%; inhibition at 280.212 g/ha (Birdseye Speedwell [29]): 100%; inhibition at 280.212 g/ha (Soybean [30]): 5%; inhibition at 280.212 g/ha (Bedstraw Catchweed [31]): 85%; inhibition at 280.212 g/ha (Velvetleaf [32]): 80%; inhibition at 280.212 g/ha (Common Chickweed [33]): 100%; inhibition at 280.212 g/ha (Seedling Johnsongrass [34]): 99%
3 | Cc1c(-c2cc(C(=O)OCC(=O)OC(C)C)c(Cl)cc2F)nn(C)c1C(F)(F)F [Compound 23] | 11 | 90 | 60 | 10 | 20 | 20 | 65 | 15 | 15 | 25 | 7 | 75 | 30 | 50 | 98 | 75 | 65 | 0 | 10 | 40 | inhibition at 280.212 g/ha (Rape [21]): 75%; inhibition at 280.212 g/ha (Giant Foxtail [22]): 65%; inhibition at 280.212 g/ha (Wild Oats [23]): 10%; inhibition at 280.212 g/ha (Morning Glory [24]): 25%; inhibition at 280.212 g/ha (Blackgrass [25]): 15%; inhibition at 280.212 g/ha (Green Foxtail [26]): 85%; inhibition at 280.212 g/ha (Downy Brome [27]): 15%; inhibition at 280.212 g/ha (Corn [28]): 0%; inhibition at 280.212 g/ha (Birdseye Speedwell [29]): 100%; inhibition at 280.212 g/ha (Soybean [30]): 5%; inhibition at 280.212 g/ha (Bedstraw Catchweed [31]): 45%; inhibition at 280.212 g/ha (Velvetleaf [32]): 65%; inhibition at 280.212 g/ha (Common Chickweed [33]): 100%; inhibition at 280.212 g/ha (Seedling Johnsongrass [34]): 30%
